These results are taken from patent US12037340B2, “Pentacyclic derivatives as Zika virus inhibitors” (Gilead Sciences, Inc., priority 2021, dated 2024).

pEC50: −log10 of the molar value.

For the test, the system named is ZIKV. As to the kind of experiment: microbe, parasite or virus in culture. It counts as cell-based, Zika virus. The following applies: 48 hrs.

Broadly, the pEC50 is the EC50 on a negative log10 scale, so that one unit is a factor of ten. Compound “methyl ((2S,3S)-1-((S)-6-(4-chloro-5-(2-((S)-5-((methoxycarbonyl)-L-isoleucyl)-5-azaspiro[2.4]heptan-6-yl)-1-dihydroisochromeno[4′,3′:6,7]naphtho[1,2-d]imidazol-9-yl)-1H-imidazol-2-yl)-5-azaspiro[2.4]heptan-5-yl)-3-methyl-1-oxopentan-2-yl)carbamate [Compound 3]” showed a pEC50 of 7.73.
Regarding `CC[C@@H](C)[C@H](NC(=O)OC)C(=O)N1C[C@@H](COC)C[C@H]1c1nc(Cl)c(-c2ccc3c(c2)COc2cc4c(ccc5nc([C@@H]6CC[C@H](C)N6C(=O)[C@@H](NC(=O)OC)C(C)C)[nH]c54)cc2-3)[nH]1` [Compound 19, methyl ((S)-1-((2S,5S)-2-(9-(4-chloro-2-((2S,4S)-1-((methoxycarbonyl)-L-alloisoleucyl)-4-(methoxymethyl)pyrrolidin-2-yl)-1H-imidazol-5-yl)-1,11-dihydroisochromeno[4′,3′:6,7]naphtho[1,2-d]imidazol-2-yl)-5-methylpyrrolidin-1-yl)-3-methyl-1-oxobutan-2-yl)carbamate], the pEC50 (Zika virus, Huh-7) was 7.79.
`COC(=O)N[C@H](C(=O)N1[C@@H](C)CC[C@H]1c1nc(Cl)c(-c2ccc3c(c2)COc2cc4c(ccc5nc([C@@H]6CC[C@H](C)N6C(=O)[C@@H](NC(=O)OC)C(C)(C)C(F)(F)F)[nH]c54)cc2-3)[nH]1)C(C)(C)C(F)(F)F` [Compound 24, methyl ((S)-1-((2S,5S)-2-(4-chloro-5-(2-((2S,5S)-5-methyl-1-((S)-4,4,4-trifluoro-2-((methoxycarbonyl)amino)-3,3-dimethylbutanoyl)pyrrolidin-2-yl)-1,11-dihydroisochromeno[4′,3′:6,7]naphtho[1,2-d]imidazol-9-yl)-1H-imidazol-2-yl)-5-methylpyrrolidin-1-yl)-4,4,4-trifluoro-3,3-dimethyl-1-oxobutan-2-yl)carbamate] showed a pEC50 (Zika virus, Huh-7) of 8.38.
Still for that read-out and setting: with `CC[C@@H](C)[C@H](NC(=O)OC)C(=O)N1[C@@H](C)CC[C@H]1c1nc(C(C)C)c(-c2ccc3c(c2)COc2cc4c(ccc5nc([C@@H]6CC[C@H](C)N6C(=O)[C@@H](NC(=O)OC)[C@H](C)CC)[nH]c54)cc2-3)[nH]1` [Compound 46, methyl ((2S,3R)-1-((2S,5S)-2-(4-isopropyl-5-(2-((2S,5S)-1-((methoxycarbonyl)-L-alloisoleucyl)-5-methylpyrrolidin-2-yl)-1,11-dihydroisochromeno[4′,3′:6,7]naphtho[1,2-d]imidazol-9-yl)-1H-imidazol-2-yl)-5-methylpyrrolidin-1-yl)-3-methyl-1-oxopentan-2-yl)carbamate] the figure was 7.57; with `COC(=O)N[C@H](C(=O)N1[C@@H](C)CC[C@H]1c1nc(Cl)c(-c2ccc3c(c2)COc2cc4c(ccc5nc([C@@H]6CC[C@H](C)N6C(=O)[C@@H](NC(=O)OC)C(C)(C)C)[nH]c54)cc2-3)[nH]1)C(C)(C)C` [Compound 23, methyl ((S)-1-((2S,5S)-2-(4-chloro-5-(2-((2S,5S)-1-((S)-2-((methoxycarbonyl)amino)-3,3-dimethylbutanoyl)-5-methylpyrrolidin-2-yl)-1,11-dihydroisochromeno[4′,3′:6,7]naphtho[1,2-d]imidazol-9-yl)-1H-imidazol-2-yl)-5-methylpyrrolidin-1-yl)-3,3-dimethyl-1-oxobutan-2-yl)carbamate], 8.03.
`COC(=O)N[C@H](C(=O)N1[C@@H](C)CC[C@H]1c1nc(C2CC2)c(-c2ccc3c(c2)COc2cc4c(ccc5nc([C@@H]6CC[C@H](C)N6C(=O)[C@@H](NC(=O)OC)C(C)(C)C(F)(F)F)[nH]c54)cc2-3)[nH]1)C(C)(C)C(F)(F)F` [Compound 41, methyl ((S)-1-((2S,5S)-2-(4-cyclopropyl-5-(2-((2S,5S)-5-methyl-1-((S)-4,4,4-trifluoro-2-((methoxycarbonyl)amino)-3,3-dimethylbutanoyl)pyrrolidin-2-yl)-1,11-dihydroisochromeno[4′,3′:6,7]naphtho[1,2-d]imidazol-9-yl)-1H-imidazol-2-yl)-5-methylpyrrolidin-1-yl)-4,4,4-trilluoro-3,3-dimethyl-1-oxobutan-2-yl)carbamate] had a pEC50 of 8.32.
As to `COC(=O)N[C@H](C(=O)N1CCC[C@H]1c1nc(Cl)c(-c2ccc3c(c2)COc2cc4c(ccc5nc([C@@H]6CCCN6C(=O)[C@@H](NC(=O)OC)C(C)(C)C)[nH]c54)cc2-3)[nH]1)C(C)(C)C` [Compound 30, methyl ((S)-1-((S)-2-(4-chloro-5-(2-((S)-1-((S)-2-((methoxycarbonyl)amino)-3,3-dimethylbutanoyl)pyrrolidin-2-yl)-1,11-dihydroisochromeno[4′,3′:6,7]naphtho[1,2-d]imidazol-9-yl)-1H-imidazol-2-yl)pyrrolidin-1-yl)-3,3-dimethyl-1-oxobutan-2-yl)carbamate], the pEC50 (Zika virus, Huh-7) was 7.35.
On the same count and under the same terms, in the case of `CC[C@H](C)[C@H](NC(=O)OC)C(=O)N1[C@@H](C)CC[C@H]1c1nc(C2CC2)c(-c2ccc3c(c2)COc2cc4c(ccc5nc([C@@H]6CC[C@H](C)N6C(=O)[C@@H](NC(=O)OC)[C@@H](C)CC)[nH]c54)cc2-3)[nH]1` [Compound 39, methyl ((2S,3S)-1-((2S,5S)-2-(4-cyclopropyl-5-(2-((2S,5S)-1-((methoxycarbonyl)-L-isoleucyl)-5-methylpyrrolidin-2-yl)-1,11-dihydroisochromeno[4′,3′:6,7]naphtho[1,2-d]imidazol-9-yl)-1H-imidazol-2-yl)-5-methylpyrrolidin-1-yl)-3-methyl-1-oxopentan-2-yl)carbamate] it was 7.76.
